Experimental data published in patent publication US12421211B2, “Heterocyclic compounds” (Hoffmann-La Roche Inc., priority 2021, dated 2025).
Where a name gives a salt, the structure may show the parent alone.

Test system: Acinetobacter baumannii ATCC17961
Experiment: Antimicrobial susceptibility testing: 90% growth inhibitory concentration (IC90) determination
Format: cell-based
Details: 90% growth inhibitory concentration, Acinetobacter baumannii ATCC17961, Iso-Sensitest broth, OD 600 nm over 16 h; formate; read-out: ATCC 17961 IC90
Outline: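 Growth inhibition derived in log phase from OD600 kinetics (every 20 minutes, 16h, 35±2° C) of ATCC17961 in Iso-Sensitest medium, inoculum ~5×10^5 CFU/ml. Compounds tested as twofold series, 10 points (e.g. 50 to 0.097 μM final); IC90 and IC50 reported.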

Structure (SMILES) | IC90 [µM]
COCCn1cc(-c2ccc(-c3cnc(C(=O)Nc4ccc(C(=O)N5CCN(C(=O)C6CC[N+](C)(CC(N)=O)CC6)CC5)c(Cl)c4)n3C)c(F)c2F)c(C)n1 (stereo not drawn) [Example B3, N-[4-[4-[1-(2-amino-2-oxo-ethyl)-1-methyl-piperidin-1-ium-4-carbonyl]piperazine-1-carbonyl]-3-chloro-phenyl]-5-[2,3-difluoro-4-[1-(2-methoxyethyl)-3-methyl-pyrazol-4-yl]phenyl]-1-methyl-imidazole-2-carboxamide; formate] | 0.13

Same assay, conditions: Acinetobacter baumannii, ATCC17961, 16 h, 90% growth inhibitory concentration, Acinetobacter baumannii ATCC17961, Iso-Sensitest broth, OD 600 nm over 16 h; read-out: ATCC 17961 IC90

Structure (SMILES) | IC90 [µM]
Cc1c(-c2cnc(C(=O)Nc3ccc(C(=O)N4CCN(C(=O)CCC[N+](C)(CC(=O)O)CC5CNC5)CC4)c(Cl)c3)n2C)ccc(-c2cnn(CCOC(F)F)c2C)c1F (stereo not drawn) [Example N1, azetidin-3-ylmethyl-(carboxymethyl)-[4-[4-[2-chloro-4-[[5-[4-[1-[2-(difluoromethoxy)ethyl]-5-methyl-pyrazol-4-yl]-3-fluoro-2-methyl-phenyl]-1-methyl-imidazole-2-carbonyl]amino]benzoyl]piperazin-1-yl]-4-oxo-butyl]-methyl-ammonium; formic acid; formate] | 0.189
Cc1nn(CCCC#N)c(C)c1-c1ccc(-c2cnc(C(=O)Nc3ccc(C(=O)N4CCN(C(=O)[C@@H]5C[C@@H](O)C[N+]5(C)C)CC4)c(Cl)c3)n2C)c(F)c1F [Example F58, N-[3-chloro-4-[4-[(2S,4R)-4-hydroxy-1,1-dimethyl-pyrrolidin-1-ium-2-carbonyl]piperazine-1-carbonyl]phenyl]-5-[4-[1-(3-cyanopropyl)-3,5-dimethyl-pyrazol-4-yl]-2,3-difluoro-phenyl]-1-methyl-imidazole-2-carboxamide; formate] | 0.48
COCCn1ncc(-c2ccc(-c3cnc(C(=O)Nc4ccc(C(=O)N5CCN(C(=O)C6CC[N+](C)(C)CC6)CC5)c(Cl)c4)n3C)c(F)c2F)c1C [Example A4, N-[3-chloro-4-[4-(1,1-dimethylpiperidin-1-ium-4-carbonyl)piperazine-1-carbonyl]phenyl]-5-[2,3-difluoro-4-[1-(2-methoxyethyl)-5-methyl-pyrazol-4-yl]phenyl]-1-methyl-imidazole-2-carboxamide; formate] | 0.11
COCCn1ncc(-c2ccc(-c3cnc(C(=O)Nc4ccc(C(=O)N5CCN(C(=O)[C@H]6[C@@H]7C[N+](C)(C)C[C@@H]76)CC5)c(Cl)c4)n3C)c(F)c2F)c1C [Example B26, N-[3-chloro-4-[4-[(1R,5S)-3,3-dimethyl-3-azoniabicyclo[3.10]hexane-6-carbonyl]piperazine-1-carbonyl]phenyl]-5-[2,3-difluoro-4-[1-(2-methoxyethyl)-5-methyl-pyrazol-4-yl]phenyl]-1-methyl-imidazole-2-carboxamide; formate] | 0.064
COCCn1cc(-c2ccc(-c3cnc(C(=O)Nc4ccc(C(=O)N5CCN(C(=O)C[N+]6(C)C[C@H](OC)[C@@H](N)C6)CC5)c(Cl)c4)n3C)c(F)c2F)c(C)n1 (stereo partly drawn) [Example C5, N-[4-[4-[2-[(3S,4S)-3-amino-4-methoxy-1-methyl-pyrrolidin-1-ium-1-yl]acetyl]piperazine-1-carbonyl]-3-chloro-phenyl]-5-[2,3-difluoro-4-[1-(2-methoxyethyl)-3-methyl-pyrazol-4-yl]phenyl]-1-methyl-imidazole-2-carboxamide; formic acid; formate] | 0.24
Cc1n[nH]cc1-c1ccc(-c2cnc(C(=O)Nc3ccc(C(=O)N4CCC(CN5CC[N+](C)(C)CC5=O)CC4)c(Cl)c3)n2C)c(F)c1F [Example D21, N-[3-chloro-4-[4-[(4,4-dimethyl-2-oxo-piperazin-4-ium-1-yl)methyl]piperidine-1-carbonyl]phenyl]-5-[2,3-difluoro-4-(3-methyl-1H-pyrazol-4-yl)phenyl]-1-methyl-imidazole-2-carboxamide; formate] | 0.2
Cn1cc(-c2n[nH]cc2-c2ccc(-c3cnc(C(=O)Nc4ccc(C(=O)N5CCN(C(=O)C6CC[N+](C)(C)CC6)CC5)c(Cl)c4)n3C)c(F)c2F)cn1 [Example F47, N-[3-chloro-4-[4-(1,1-dimethylpiperidin-1-ium-4-carbonyl)piperazine-1-carbonyl]phenyl]-5-[2,3-difluoro-4-[3-(1-methylpyrazol-4-yl)-1H-pyrazol-4-yl]phenyl]-1-methyl-imidazole-2-carboxamide; formate] | 0.53
COCCn1ncc(-c2ccc(-c3cnc(C(=O)Nc4ccc(C(=O)N5CCN(C(=O)CCCC(=O)N6CC[N+](CCCN)(CC(=O)O)CC6)CC5)c(Cl)c4)n3C)c(F)c2F)c1C [Example P5, 2-[1-(3-aminopropyl)-4-[5-[4-[2-chloro-4-[[5-[2,3-difluoro-4-[1-(2-methoxyethyl)-5-methyl-pyrazol-4-yl]phenyl]-1-methyl-imidazole-2-carbonyl]amino]benzoyl]piperazino]-5-keto-pentanoyl]piperazin-1-ium-1-yl]acetic acid; formate] | 0.295
COCCn1ncc(-c2ccc(-c3cnc(C(=O)Nc4ccc(C(=O)N5CCN(C(=O)C6CC[N+](C)(C)CC6)CC5)c(Cl)c4)n3C)c(F)n2)c1C [Example F57, N-[3-chloro-4-[4-(1,1-dimethylpiperidin-1-ium-4-carbonyl)piperazine-1-carbonyl]phenyl]-5-[2-fluoro-6-[1-(2-methoxyethyl)-5-methyl-pyrazol-4-yl]-3-pyridyl]-1-methyl-imidazole-2-carboxamide; formate] | 0.88
COCCn1ncc(-c2ccc(-c3cnc(C(=O)Nc4ccc(C(=O)N5CCN(C(=O)C6(OC)CC[N+](C)(C)CC6)CC5)c(Cl)c4)n3C)c(F)c2F)c1C [Example A13, N-[3-chloro-4-[4-(4-methoxy-1,1-dimethyl-piperidin-1-ium-4-carbonyl)piperazine-1-carbonyl]phenyl]-5-[2,3-difluoro-4-[1-(2-methoxyethyl)-5-methyl-pyrazol-4-yl]phenyl]-1-methyl-imidazole-2-carboxamide; formate] | 0.11
COCCn1ncc(-c2ccc(-c3cnc(C(=O)Nc4ccc(C(=O)N5CCN(C(=O)[C@@H]6C[C@@H](O)C[N+]6(C)C)CC5)c(Cl)c4)n3C)c(F)c2F)c1C [Example F15, N-[3-chloro-4-[4-[(2S,4R)-4-hydroxy-1,1-dimethyl-pyrrolidin-1-ium-2-carbonyl]piperazine-1-carbonyl]phenyl]-5-[2,3-difluoro-4-[1-(2-methoxyethyl)-5-methyl-pyrazol-4-yl]phenyl]-1-methyl-imidazole-2-carboxamide; 2,2,2-trifluoroacetate] | 0.055
COCCn1ncc(-c2ccc(-c3cnc(C(=O)Nc4ccc(C(=O)N5CCN(C(=O)C6CC[N+](C)(C)CC6)CC5)c(Cl)c4)n3C)c(C)c2)c1C [Example F19, N-[3-chloro-4-[4-(1,1-dimethylpiperidin-1-ium-4-carbonyl)piperazine-1-carbonyl]phenyl]-5-[4-[1-(2-methoxyethyl)-5-methyl-pyrazol-4-yl]-2-methyl-phenyl]-1-methyl-imidazole-2-carboxamide; formate] | 0.33
Cc1nn(CCOC(F)F)c(C)c1-c1ccc(-c2cnc(C(=O)Nc3ccc(C(=O)N4CCN(C(=O)C5C[C@@H](O)C[N+]5(C)C)CC4)c(Cl)c3)n2C)c(F)c1F (stereo partly drawn) [Example K2, N-[3-chloro-4-[4-[(4R)-4-hydroxy-1,1-dimethyl-pyrrolidin-1-ium-2-carbonyl]piperazine-1-carbonyl]phenyl]-5-[4-[1-2-(difluoromethoxy)ethyl]-3,5-dimethyl-pyrazol-4-yl]-2,3-difluoro-phenyl]-1-methyl-imidazole-2-carboxamide; formate] | 0.36

Same assay, conditions: Acinetobacter baumannii, ATCC17961, 16 h, read-out: ATCC 17961 IC90

Structure (SMILES) | IC90 [µM]
COCCn1ncc(-c2ccc(-c3cnc(C(=O)Nc4ccc(C(=O)N5CCN(C(=O)[C@@H]6C[C@@H](O)C[N+]6(C)C)CC5)c(Cl)c4)n3C)c(C)c2F)c1C [Example O11, N-[3-chloro-4-[4-[(2S,4R)-4-hydroxy-1,1-dimethyl-pyrrolidin-1-ium-2-carbonyl]piperazine-1-carbonyl]phenyl]-5-[3-fluoro-4-[1-(2-methoxyethyl)-5-methyl-pyrazol-4-yl]-2-methyl-phenyl]-1-methyl-imidazole-2-carboxamide; 2,2,2-trifluoroacetate] | 0.156
COCCn1cc(-c2ccc(-c3cnc(C(=O)Nc4ccc(C(=O)N5CCN(C(=O)[C@H]6CC[N@+](CC(=O)O)(CC7CNC7)CC6)CC5)c(C)c4)n3C)c(F)c2F)c(C)n1 [Example O8, cis 2-[1-(azetidin-3-ylmethyl)-4-[4-[4-[[5-[2,3-difluoro-4-[1-(2-methoxyethyl)-3-methylpyrazol-4-yl]phenyl]-1-methylimidazole-2-carbonyl]amino]-2-methylbenzoyl]piperazine-1-carbonyl]piperidin-1-ium-1-yl]acetic acid formate] | 0.245
COCCn1nc(C)c(-c2ccc(-c3cnc(C(=O)Nc4ccc(C(=O)N5CCN(C(=O)C6CC[N+](C)(CCO)CC6)CC5)c(Cl)c4)n3C)c(F)c2F)c1C (stereo not drawn) [Example B8, N-[3-chloro-4-[4-[1-(2-hydroxyethyl)-1-methyl-piperidin-1-ium-4-carbonyl]piperazine-1-carbonyl]phenyl]-5-[2,3-difluoro-4-[1-(2-methoxyethyl)-3,5-dimethyl-pyrazol-4-yl]phenyl]-1-methyl-imidazole-2-carboxamide; formate] | 0.28
COCCn1ncc(-c2ccc(-c3cnc(C(=O)Nc4ccc(C(=O)N5CCN(C(=O)C6CCN(CCS(N)(=O)=O)CC6)CC5)c(Cl)c4)n3C)c(F)c2F)c1C [Example B33, N-[3-chloro-4-[4-[1-(2-sulfamoylethyl)piperidine-4-carbonyl]piperazine-1-carbonyl]phenyl]-5-[2,3-difluoro-4-[1-(2-methoxyethyl)-5-methyl-pyrazol-4-yl]phenyl]-1-methyl-imidazole-2-carboxamide] | 0.82
